ChEMBL document CHEMBL3822390, “Synthesis, characterization and anti-cancer activity of a peptide nucleolipid bioconjugate” (2016)

Columns and labels:
Assay type in all cases: functional
[1] = Cytotoxicity against human SF268 cells assessed as cell growth at 7.25 uM after 48 hrs by SRB assay; conditions: SF-268, 48 h, read-out: Activity
NCI-H522 [2] = test: Cytotoxicity against human NCI-H522 cells assessed as cell mortality at 7.25 uM after 48 hrs by SRB assay; conditions: NCI-H522, 48 h
[3] = Cytotoxicity against human DU145 cells assessed as cell growth at 7.25 uM after 48 hrs by SRB assay; conditions: DU-145, 48 h, read-out: Activity
[4] = Cytotoxicity against human PC3 cells assessed as cell growth at 7.25 uM after 48 hrs by SRB assay; conditions: PC-3, 48 h, read-out: Activity
[5] = Cytotoxicity against human SF295 cells assessed as cell growth at 7.25 uM after 48 hrs by SRB assay; conditions: SF-295, 48 h, read-out: Activity
SN12C = test: Cytotoxicity against human SN12C cells assessed as cell growth at 7.25 uM after 48 hrs by SRB assay; conditions: read-out: Activity
SR = test: Cytotoxicity against human SR cells assessed as cell growth at 7.25 uM after 48 hrs by SRB assay; conditions: read-out: Activity
NCI-H522 [6] = test: Cytotoxicity against human NCI-H522 cells assessed as cell growth at 7.25 uM after 48 hrs by SRB assay; conditions: NCI-H522, 48 h, read-out: Activity
[7] = Cytotoxicity against human HCT116 cells assessed as cell growth at 7.25 uM after 48 hrs by SRB assay; conditions: HCT-116, 48 h, read-out: Activity
[8] = Cytotoxicity against human SNB19 cells assessed as cell growth at 10 uM after 48 hrs by SRB assay; conditions: SNB-19, 48 h, read-out: Activity
[9] = Cytotoxicity against human UACC62 cells assessed as cell growth at 10 uM after 48 hrs by SRB assay; conditions: UACC-62, 48 h, read-out: Activity
KM12 = test: Cytotoxicity against human KM12 cells assessed as cell growth at 10 uM after 48 hrs by SRB assay; conditions: KM12, 48 h, read-out: Activity
SK-MEL-5 = test: Cytotoxicity against human SK-MEL-5 cells assessed as cell growth at 10 uM after 48 hrs by SRB assay; conditions: SK-MEL-5, 48 h, read-out: Activity
T47D [10] = test: Cytotoxicity against human T47D cells assessed as cell growth at 10 uM after 48 hrs by SRB assay; conditions: read-out: Activity
[11] = Cytotoxicity against human HCC2998 cells assessed as cell growth at 10 uM after 48 hrs by SRB assay; conditions: HCC 2998, 48 h, read-out: Activity
MCF7 = test: Cytotoxicity against human MCF7 cells assessed as cell growth at 10 uM after 48 hrs by SRB assay; conditions: MCF7, 48 h, read-out: Activity
NCI-H322M = test: Cytotoxicity against human NCI-H322M cells assessed as cell growth at 10 uM after 48 hrs by SRB assay; conditions: read-out: Activity
[12] = Cytotoxicity against human HOP92 cells assessed as cell growth at 2.13 uM after 48 hrs by SRB assay; conditions: HOP-92, 48 h, read-out: Activity
CCRF-CEM = test: Cytotoxicity against human CCRF-CEM cells assessed as cell growth at 2.13 uM after 48 hrs by SRB assay; conditions: read-out: Activity
[13] = Cytotoxicity against human OVCAR5 cells assessed as cell growth at 2.13 uM after 48 hrs by SRB assay; conditions: OVCAR-5, 48 h, read-out: Activity
[14] = Cytotoxicity against human RXF393 cells assessed as cell growth at 2.13 uM after 48 hrs by SRB assay; conditions: RXF 393, 48 h, read-out: Activity
T47D [15] = test: Cytotoxicity against human T47D cells assessed as cell growth at 2.13 uM after 48 hrs by SRB assay; conditions: read-out: Activity
[16] = Cytotoxicity against human Caki1 cells assessed as cell growth at 2.13 uM after 48 hrs by SRB assay; conditions: CAKI-1, 48 h, read-out: Activity
NCI-H460 = test: Cytotoxicity against human NCI-H460 cells assessed as cell growth at 2.13 uM after 48 hrs by SRB assay; conditions: NCI-H460, 48 h, read-out: Activity
786-0 = test: Cytotoxicity against human 786-0 cells assessed as cell growth at 2.13 uM after 48 hrs by SRB assay; conditions: 786-0, 48 h, read-out: Activity
[17] = Cytotoxicity against human COLO205 cells assessed as cell growth at 2.13 uM after 48 hrs by SRB assay; conditions: COLO 205, 48 h, read-out: Activity
[18] = Cytotoxicity against human SF295 cells assessed as cell growth at 2.13 uM after 48 hrs by SRB assay; conditions: SF-295, 48 h, read-out: Activity

Structure (SMILES): CCCCCCCCCCCCCCCC(=O)NCCCC[C@H](NC(=O)[C@H](C)NC(=O)[C@H](CCCCN)NC(=O)[C@H](C)NC(=O)[C@H](CC(C)C)NC(=O)[C@H](CCCCN)NC(=O)[C@H](C)NC(=O)[C@H](CC(C)C)NC(=O)[C@H](CCCCN)NC(=O)[C@H](CCCCN)NC(=O)[C@H](C)NC(=O)[C@H](CC(C)C)NC(=O)[C@H](CCCCN)NC(=O)[C@H](C)NC(=O)[C@H](CC(C)C)NC(=O)[C@H](CCCCN)NC(=O)[C@@H](N)CC(=O)O)C(N)=O
- growth at 7.25 µM [1]: 105%
- mortality at 7.25 µM (NCI-H522 [2]): 16%
- growth at 7.25 µM [3]: 123%
- growth at 7.25 µM [4]: 91.2%
- growth at 7.25 µM [5]: 110%
- growth at 7.25 µM (SN12C): 104%
- growth at 7.25 µM (SR): 91.9%
- growth at 7.25 µM (NCI-H522 [6]): 83.5%
- growth at 7.25 µM [7]: 92.3%

Structure (SMILES): CC(C)C[C@H](NC(=O)[C@H](CCCCN)NC(=O)[C@H](C)NC(=O)[C@H](CC(C)C)NC(=O)[C@H](CCCCN)NC(=O)[C@H](CCCCN)NC(=O)[C@H](C)NC(=O)[C@H](CC(C)C)NC(=O)[C@H](CCCCN)NC(=O)[C@H](C)NC(=O)[C@H](CC(C)C)NC(=O)[C@H](CCCCN)NC(=O)[C@@H](N)CC(=O)O)C(=O)N[C@@H](C)C(=O)N[C@@H](CCCCN)C(=O)N[C@@H](C)C(=O)N[C@@H](CCCCN)C(N)=O
- growth at 10 µM [8]: 106%
- growth at 10 µM [9]: 104%
- growth at 10 µM (KM12): 103%
- growth at 10 µM (SK-MEL-5): 101%
- growth at 10 µM (T47D [10]): 113%
- growth at 10 µM [11]: 100%
- growth at 10 µM (MCF7): 96.7%
- growth at 10 µM (NCI-H322M): 110%

Structure (SMILES): CCCCCCCCCCCCCCCCNCCO[C@H]1C[C@H](n2cc(C)c(=O)[nH]c2=O)O[C@@H]1C(=O)NCCCC[C@H](NC(=O)[C@H](C)NC(=O)[C@H](CCCCN)NC(=O)[C@H](C)NC(=O)[C@H](CC(C)C)NC(=O)[C@H](CCCCN)NC(=O)[C@H](C)NC(=O)[C@H](CC(C)C)NC(=O)[C@H](CCCCN)NC(=O)[C@H](CCCCN)NC(=O)[C@H](C)NC(=O)[C@H](CC(C)C)NC(=O)[C@H](CCCCN)NC(=O)[C@H](C)NC(=O)[C@H](CC(C)C)NC(=O)[C@H](CCCCN)NC(=O)[C@@H](N)CC(=O)O)C(N)=O
- growth at 2.13 µM [12]: 86.8%
- growth at 2.13 µM (CCRF-CEM): 108%
- growth at 2.13 µM [13]: 105%
- growth at 2.13 µM [14]: 113%
- growth at 2.13 µM (T47D [15]): 91.6%
- growth at 2.13 µM [16]: 96.1%
- growth at 2.13 µM (NCI-H460): 109%
- growth at 2.13 µM (786-0): 107%
- growth at 2.13 µM [17]: 109%
- growth at 2.13 µM [18]: 97.7%
